These results are taken from patent publication US11299493B2, “Heterocyclic compounds and uses thereof” (NUVATION BIO INC., priority 2017, dated 2022).

By IC50 is commonly meant the midpoint of a concentration-inhibition curve.

Experiment [1] deals with A427 cells. Description: Cell proliferation assay (Cell Titer-Glo) in A427 cells. Type of experiment: cell-based. To be noted: Homo sapiens, A-427, typically 72 h. How it is done: (§1) The effects of test compounds were studied in five cell lines with various histotypes. The cancer cells (Table 4) were harvested during the logarithmic growth period and counted. Adjust cell concentrations to the appropriated number with respective medium, and add 90 μL cell suspensions to 96-well plates. After cells were seeded, the plates were shaken gently to distribute cells evenly and incubated at 37° C., 5% CO2 on day 1.
(§2) Cell viability data were plotted using GraphPad Prism (version 5, GraphPad Software, Inc., San Diego, Calif.). In addition, a nonlinear regression model with a sigmoidal dose response and variable slope within GraphPad Prism was used to calculate the IC50 value of individual test compounds.

A further experiment has as its system LoVo cells. Briefly: Cell proliferation assay (Cell Titer-Glo) in LoVo cells. Type of experiment: cell-based. To be noted: Homo sapiens, typically 72 h. On the procedure: as §1
(§3) Cells were treated with test compounds at 9 concentrations within a desired concentration range (e.g. 1.5 nM-10 μM) on day 2 by series diluting the test compound stock solution (10 mM in DMSO) with culture medium. Cell viability was assessed by Cell Titer-Glo® as recommended by Promega (Cat. No.: G7572, Promega) typically 72 h post-treatment.
as §2
(In general: ATP-based viability assays read luminescence as a measure of living cells.)

Another experiment concerns HCT-116 cells. Description: Cell proliferation assay (Cell Titer-Glo) in HCT-116 cells. To be noted: Homo sapiens; HCT-116, Cell Titer-Glo, typically 72 h; read-out: IC50 HCT116. Type of experiment: cell-based. How it is done: as §1, §3, §2
A further experiment addresses WEE1 kinase enzyme (Homo sapiens (Human), UniProt P30291). Briefly: WEE1 IC50 determination, LanthaScreen Terbium Labeled TR-FRET kinase assay. Type of experiment: biochemical. To be noted: WEE1 enzyme 1 nM, ATP 10 μM, 1 h.
In another experiment the test system is A549 cells. Description: Cytotoxicity assay (resazurin) in A549 cells. Type of experiment: cell-based. As to conditions: Homo sapiens, A549, 96 hr, read-out: Cell Viability IC50 A549. On the procedure:
(§4) Cells were allowed to grow at 37° C. for 24 hr in 5% CO2 environment (culture conditions) in a Nuaire incubator (humidified). Serially diluted test compounds (100 μL) within the desired testing concentration ranges were added to the culture plate were further incubated in culture conditions for 72 hr and 96 hr for A427 and A549 respectively. The experiment was terminated at the designated incubation time by replacing the medium with 100 μL of 1 mM of resazurin (R7017; Sigma) prepared in respective culture medium, and the plates were further incubated in culture conditions for 4-6 hr. Fluorescence was recorded using a multimodal plate reader (Biotek Synergy Neo) at an excitation wavelength of 535 nm and emission wavelength of 590 nm to obtain relative fluorescence units. Data analysis was done by subtracting the background fluorescence (only medium blank) value from each reading and then normalizing with the vehicle control (DMSO treated cells) to obtain percent survival/proliferation. Percent survival was then subtracted by 100 to get the percent inhibition of proliferation which was used to calculate IC50 values.
In general terms: Alamar Blue is a resazurin reagent that responds to reducing activity.

Experiment [2] relates to A427 cells. Briefly: Cytotoxicity assay (resazurin) in A427 cells. Type of experiment: cell-based. As to conditions: Homo sapiens, read-out: Cell Viability IC50 A427.
Another experiment deals with NCI-H460 cells. Briefly: Cell proliferation assay (Cell Titer-Glo) in NCI-H460 cells. Type of experiment: cell-based. To be noted: Homo sapiens, typically 72 h. On the procedure:
as §1, §3, §2

For the next experiment, the system named is A2780 cells. Briefly: Cell proliferation assay (Cell Titer-Glo) in A2780 cells. Type of experiment: cell-based. As to conditions: Homo sapiens, typically 72 h. On the procedure:
as §1, §3, §2

For a further experiment, the system named is A172 cells. Description: Cytotoxicity assay (resazurin) in A172 cells. To be noted: Homo sapiens, A 172, read-out: Cell Viability IC50 A172. Type of experiment: cell-based. On the procedure:
[The source words this procedure for another cell line and reports this cell line under the same test.] as §4, with “A549 (CCL-185; ATCC) and A427 (HTB-53; ATCC), both lung epithelial cell lines were seeded in their respective medium (DMEM/MEM, 10569044/41090101; Gibco) at a cell count of 1500 cells per 100 μL per well in a 96 well edge plate (167425; ThermoFisher). Cells” for “Cells”, “values. Potency of compounds in other cell lines (As-Pc-1, Panc 10.05, A172) was determined in an analogous manner.” for “values.”

The next experiment relates to As-Pc-1 cells. Briefly: Cytotoxicity assay (resazurin) in As-Pc-1 cells. As to conditions: Homo sapiens, ASPC1; As-Pc-1, resazurin; read-out: Cell Viability IC50 As-Pc-1. Type of experiment: cell-based. How it is done:
[The source words this procedure for another cell line and reports this cell line under the same test.] as §4, with “A549 (CCL-185; ATCC) and A427 (HTB-53; ATCC), both lung epithelial cell lines were seeded in their respective medium (DMEM/MEM, 10569044/41090101; Gibco) at a cell count of 1500 cells per 100 μL per well in a 96 well edge plate (167425; ThermoFisher). Cells” for “Cells”, “values. Potency of compounds in other cell lines (As-Pc-1, Panc 10.05, A172) was determined in an analogous manner.” for “values.”

In another experiment the test system is AsPC-1 cells. Description: Synergistic activity with gemcitabine, combination matrix method, AsPC-1 cells. Type of experiment: cell-based. As to conditions: fractional effect level of about 0.5, Chou-Talalay. On the procedure: (§5) Determination of synergistic activity of compounds in combination with a chemotherapeutic drug on cell viability is determined by a combination matrix method. Chemotherapeutics that may be used in the combination include but are not limited to a platinum-based chemotherapeutic agent, a DNA alkylating agent, a topoisomerase inhibitor, an anthracycline, a histone deacetylase inhibitor, a bromodomain inhibitor, a kinase inhibitor, a mTOR inhibitor, a PARP inhibitor, an ATM inhibitor, an ATR inhibitor, a Wee1 inhibitor, a proteasome inhibitor, and a nucleotide analog or precursor analog. Cancer cell lines that may be used in the assay include but are not limited to lung cancer, leukemia, lymphoma, multiple myeloma, ovarian cancer, breast cancer, pancreatic cancer, stomach cancer, colon cancer, liver cancer, head and neck cancer, kidney cancer, skin cancer and brain cancer cell lines. Cells are seeded in a 96-well plate and incubated at 37° C. in cell culture conditions for 24 hr. […] Measurement of fluorescence at an excitation and emission wavelength of 535 and 590 nm respectively. Synergy is evaluated with the combination index (CI) value using the Chou-Talalay method in which additive effect (CI=1), synergism (CI<1), and antagonism (CI>1) in drug combinations is determined (Chou T C. Cancer Res 2010; 70:440-6.). […]

Experiment [3] concerns Panc 10.05 cells. Briefly: Synergistic activity with gemcitabine, combination matrix method, Panc 10.05 cells. Type of experiment: cell-based. To be noted: fractional effect level of about 0.5, Chou-Talalay. How it is done: as §5
Experiment [4] deals with Panc 10.05 cells. Description: Cytotoxicity assay (resazurin) in Panc 10.05 cells. Type of experiment: cell-based. As to conditions: Homo sapiens, Panc1005; Panc 10.05, resazurin; read-out: Cell Viability IC50 Panc 10.05. How it is done: [The source words this procedure for another cell line and reports this cell line under the same test.] as §4, with “A549 (CCL-185; ATCC) and A427 (HTB-53; ATCC), both lung epithelial cell lines were seeded in their respective medium (DMEM/MEM, 10569044/41090101; Gibco) at a cell count of 1500 cells per 100 μL per well in a 96 well edge plate (167425; ThermoFisher). Cells” for “Cells”, “values. Potency of compounds in other cell lines (As-Pc-1, Panc 10.05, A172) was determined in an analogous manner.” for “values.”

WEE1 kinase enzyme, sequence (P30291 whole entry): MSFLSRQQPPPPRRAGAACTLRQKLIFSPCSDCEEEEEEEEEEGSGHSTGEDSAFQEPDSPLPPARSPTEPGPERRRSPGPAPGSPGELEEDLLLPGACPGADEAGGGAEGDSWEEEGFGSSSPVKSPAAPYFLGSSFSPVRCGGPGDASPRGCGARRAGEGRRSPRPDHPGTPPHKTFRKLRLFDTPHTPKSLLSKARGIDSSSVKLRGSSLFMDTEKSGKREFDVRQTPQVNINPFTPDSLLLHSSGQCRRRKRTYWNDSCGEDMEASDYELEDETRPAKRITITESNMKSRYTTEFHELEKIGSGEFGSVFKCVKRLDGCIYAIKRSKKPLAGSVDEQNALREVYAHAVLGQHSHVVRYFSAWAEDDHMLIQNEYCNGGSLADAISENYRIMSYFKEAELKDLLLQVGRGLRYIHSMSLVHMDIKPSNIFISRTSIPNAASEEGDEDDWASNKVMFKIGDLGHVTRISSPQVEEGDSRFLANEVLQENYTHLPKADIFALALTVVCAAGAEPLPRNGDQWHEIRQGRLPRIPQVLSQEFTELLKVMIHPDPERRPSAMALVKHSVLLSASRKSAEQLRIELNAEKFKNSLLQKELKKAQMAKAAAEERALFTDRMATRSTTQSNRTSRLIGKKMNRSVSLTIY

On to `C=CCn1c(=O)c2cnc(Nc3ccc4c(c3)CNCC4)nc2n1-c1cccc(C(C)(C)O)n1` [Example 1.1], for which the IC50 with A427 cells [1] is 64 nM; with LoVo cells, 258 nM; in the experiment with HCT-116 cells, 1040 nM; at WEE1 kinase enzyme, 2.4 nM; in the experiment with A549 cells it was 460 nM; in the experiment with A427 cells [2] (A-427, A427, 72 hr), 95 nM. Further, the half-inhibitory concentration (IC50) with NCI-H460 cells was over 10 µM.
For `CCn1c(=O)c2cnc(Nc3ccc4c(c3)CNCC4)nc2n1-c1cccc(C(C)(C)O)n1` [Example 1.7], the half-inhibitory concentration (IC50) at WEE1 kinase enzyme was 3 nM; in the experiment with A549 cells, 660 nM; in the experiment with A427 cells [2] (A-427, 72 h, A427, 72 hr) it was 800 nM; with A2780 cells it was 1100 nM.
In the case of `CC(C)n1c(=O)c2cnc(Nc3ccc4c(c3)CCNC4)nc2n1-c1ccnc(C(C)(C)C)c1` [Example 1.138], the IC50 worked out at 4.09 µM in the experiment with A172 cells; 200 nM in the experiment on As-Pc-1 cells; 6 nM at WEE1 kinase enzyme; 2420 nM in the experiment on A549 cells; 993 nM in the experiment with A427 cells [2] (A-427, 72 h, A427, 72 hr); 2820 nM in the experiment on Panc 10.05 cells [4]. For the same compound, the “combination index with gemcitabine” value in the experiment with AsPC-1 cells and with Panc 10.05 cells [3] was “less than 1” in each case.
